What was measured:
Experiment in all cases: Test B preemergence/postemergence greenhouse plant response rating 0 to 10
[1] = system: barley; format: in vivo, Hordeum vulgare; details: for Plant response rating, Barley: 0 to 10 scale
In short: (§1)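 Postemergence treatment of plants two to eighteen cm tall ran alongside preemergence treatment of planted seed, each using compound in a non-phytotoxic solvent.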

[2] = system: barnyardgrass; format: in vivo, Echinochloa crus-galli; details: for Plant response rating, Barnyardgrass: 0 to 10 scale
In short: as §1

[3] = system: bedstraw; format: in vivo, Galium aparine; details: for Plant response rating, Bedstraw: 0 to 10 scale
In short: as §1

[4] = system: blackgrass; format: in vivo, Alopecurus myosuroides; details: for Plant response rating, Blackgrass: 0 to 10 scale
In short: as §1

[5] = system: cheatgrass; format: in vivo, Bromus secalinus; details: for Plant response rating, Cheatgrass: 0 to 10 scale
In short: as §1

[6] = system: chickweed; format: in vivo, Stellaria media; details: for Plant response rating, Chickweed: 0 to 10 scale
In short: as §1

[7] = system: cocklebur; format: in vivo, Xanthium pensylvanicum; details: for Plant response rating, Cocklebur: 0 to 10 scale
In short: as §1

[8] = system: corn; format: in vivo, Zea mays; details: for Plant response rating, Corn: 0 to 10 scale
In short: as §1

[9] = system: cotton; format: in vivo, Gossypium hirsutum; details: for Plant response rating, Cotton: 0 to 10 scale
In short: as §1

[10] = system: crabgrass; format: in vivo, Digitaria spp.; details: for Plant response rating, Crabgrass: 0 to 10 scale
In short: as §1

[11] = system: giant foxtail; format: in vivo, Setaria faberii; details: for Plant response rating, Giant foxtail: 0 to 10 scale
In short: as §1

[12] = system: lambsquarters; format: in vivo, Chenopodium album; details: for Plant response rating, Lambsquarter: 0 to 10 scale
In short: as §1

[13] = system: morningglory; format: in vivo, Ipomoea hederacea; details: for Plant response rating, Morningglory: 0 to 10 scale
In short: as §1

[14] = system: rape; format: in vivo, Brassica napus; details: for Plant response rating, Rape: 0 to 10 scale
In short: as §1

[15] = system: rice; format: in vivo, Oryza sativa; details: for Plant response rating, Rice: 0 to 10 scale
In short: as §1

[16] = system: sorghum; format: in vivo, Sorghum bicolor; details: for Plant response rating, Sorghum: 0 to 10 scale
In short: as §1

[17] = system: soybean; format: in vivo, Glycine max; details: for Plant response rating, Soybean: 0 to 10 scale
In short: as §1

[18] = system: sugar beet; format: in vivo, Beta vulgaris; details: for Plant response rating, Sugar beet: 0 to 10 scale
In short: as §1

[19] = system: velvetleaf; format: in vivo, Abutilon theophrasti; details: for Plant response rating, Velvetleaf: 0 to 10 scale
In short: as §1

[20] = system: wheat; format: in vivo, Triticum aestivum; details: for Plant response rating, Wheat: 0 to 10 scale
In short: as §1

[21] = system: wild buckwheat; format: in vivo, Polygonum convolvulus; details: for Plant response rating, Wild buckwheat: 0 to 10 scale
In short: as §1

[22] = system: wild oat; format: in vivo, Avena fatua; details: for Plant response rating, Wild oat: 0 to 10 scale
In short: as §1

[23] = system: purple nutsedge; format: in vivo, Cyperus rotundus; details: for Plant response rating, Nutsedge: 0 to 10 scale
In short: as §1

Oc1cc(-c2nn3c(c2Br)CCCC3)c(F)cc1Cl [Compound 81]
Plant response rating, Barley ([1]; POSTEMERGENCE, Rate 50 g/ha): 3
Plant response rating, Barley ([1]; PREEMERGENCE, Rate 50 g/ha): 0
Plant response rating (0 to 10 scale), Barley ([1]; PREEMERGENCE, Rate 200 g/ha): 0
Plant response rating, Barley ([1]; Rate 200 g/ha, POSTEMERGENCE): 3
Plant response rating, Barnyardgrass ([2]; POSTEMERGENCE, Rate 50 g/ha): 8
Plant response rating, Barnyardgrass ([2]; PREEMERGENCE, Rate 50 g/ha): 0
Plant response rating (0 to 10 scale), Barnyardgrass ([2]; PREEMERGENCE, Rate 200 g/ha): 0
Plant response rating, Barnyardgrass ([2]; Rate 200 g/ha, POSTEMERGENCE): 7
Plant response rating, Bedstraw ([3]; POSTEMERGENCE, Rate 50 g/ha): 9
Plant response rating, Bedstraw ([3]; PREEMERGENCE, Rate 50 g/ha): 0
Plant response rating (0 to 10 scale), Bedstraw ([3]; PREEMERGENCE, Rate 200 g/ha): 9
Plant response rating, Bedstraw ([3]; Rate 200 g/ha, POSTEMERGENCE): 10
Plant response rating, Blackgrass ([4]; POSTEMERGENCE, Rate 50 g/ha): 2
Plant response rating, Blackgrass ([4]; PREEMERGENCE, Rate 50 g/ha): 0
Plant response rating (0 to 10 scale), Blackgrass ([4]; PREEMERGENCE, Rate 200 g/ha): 3
Plant response rating, Blackgrass ([4]; Rate 200 g/ha, POSTEMERGENCE): 4
Plant response rating, Cheatgrass ([5]; POSTEMERGENCE, Rate 50 g/ha): 3
Plant response rating, Cheatgrass ([5]; PREEMERGENCE, Rate 50 g/ha): 0
Plant response rating (0 to 10 scale), Cheatgrass ([5]; PREEMERGENCE, Rate 200 g/ha): 4
Plant response rating, Cheatgrass ([5]; Rate 200 g/ha, POSTEMERGENCE): 4
Plant response rating, Chickweed ([6]; POSTEMERGENCE, Rate 50 g/ha): 2
Plant response rating, Chickweed ([6]; PREEMERGENCE, Rate 50 g/ha): 0
Plant response rating (0 to 10 scale), Chickweed ([6]; PREEMERGENCE, Rate 200 g/ha): 9
Plant response rating, Chickweed ([6]; Rate 200 g/ha, POSTEMERGENCE): 3
Plant response rating, Cocklebur ([7]; POSTEMERGENCE, Rate 50 g/ha): 8
Plant response rating, Cocklebur ([7]; PREEMERGENCE, Rate 50 g/ha): 0
Plant response rating (0 to 10 scale), Cocklebur ([7]; PREEMERGENCE, Rate 200 g/ha): 0
Plant response rating, Cocklebur ([7]; Rate 200 g/ha, POSTEMERGENCE): 10
Plant response rating, Corn ([8]; POSTEMERGENCE, Rate 50 g/ha): 2
Plant response rating, Corn ([8]; PREEMERGENCE, Rate 50 g/ha): 0
Plant response rating (0 to 10 scale), Corn ([8]; PREEMERGENCE, Rate 200 g/ha): 0
Plant response rating, Corn ([8]; Rate 200 g/ha, POSTEMERGENCE): 3
Plant response rating, Cotton ([9]; POSTEMERGENCE, Rate 50 g/ha): 10
Plant response rating, Cotton ([9]; PREEMERGENCE, Rate 50 g/ha): 0
Plant response rating (0 to 10 scale), Cotton ([9]; PREEMERGENCE, Rate 200 g/ha): 0
Plant response rating, Cotton ([9]; Rate 200 g/ha, POSTEMERGENCE): 10
Plant response rating, Crabgrass ([10]; POSTEMERGENCE, Rate 50 g/ha): 4
Plant response rating, Crabgrass ([10]; PREEMERGENCE, Rate 50 g/ha): 0
Plant response rating (0 to 10 scale), Crabgrass ([10]; PREEMERGENCE, Rate 200 g/ha): 0
Plant response rating, Crabgrass ([10]; Rate 200 g/ha, POSTEMERGENCE): 6
Plant response rating, Giant foxtail ([11]; POSTEMERGENCE, Rate 50 g/ha): 4
Plant response rating, Giant foxtail ([11]; PREEMERGENCE, Rate 50 g/ha): 0
Plant response rating (0 to 10 scale), Giant foxtail ([11]; PREEMERGENCE, Rate 200 g/ha): 2
Plant response rating, Giant foxtail ([11]; Rate 200 g/ha, POSTEMERGENCE): 8
Plant response rating, Lambsquarter ([12]; POSTEMERGENCE, Rate 50 g/ha): 10
Plant response rating, Lambsquarter ([12]; PREEMERGENCE, Rate 50 g/ha): 9
Plant response rating (0 to 10 scale), Lambsquarter ([12]; PREEMERGENCE, Rate 200 g/ha): 10
Plant response rating, Lambsquarter ([12]; Rate 200 g/ha, POSTEMERGENCE): 10
Plant response rating, Morningglory ([13]; POSTEMERGENCE, Rate 50 g/ha): 9
Plant response rating, Morningglory ([13]; PREEMERGENCE, Rate 50 g/ha): 0
Plant response rating (0 to 10 scale), Morningglory ([13]; PREEMERGENCE, Rate 200 g/ha): 0
Plant response rating, Morningglory ([13]; Rate 200 g/ha, POSTEMERGENCE): 10
Plant response rating, Rape ([14]; POSTEMERGENCE, Rate 50 g/ha): 3
Plant response rating, Rape ([14]; PREEMERGENCE, Rate 50 g/ha): 0
Plant response rating (0 to 10 scale), Rape ([14]; PREEMERGENCE, Rate 200 g/ha): 7
Plant response rating, Rape ([14]; Rate 200 g/ha, POSTEMERGENCE): 7
Plant response rating, Rice ([15]; POSTEMERGENCE, Rate 50 g/ha): 6
Plant response rating, Rice ([15]; PREEMERGENCE, Rate 50 g/ha): 0
Plant response rating (0 to 10 scale), Rice ([15]; PREEMERGENCE, Rate 200 g/ha): 0
Plant response rating, Rice ([15]; Rate 200 g/ha, POSTEMERGENCE): 6
Plant response rating, Sorghum ([16]; POSTEMERGENCE, Rate 50 g/ha): 3
Plant response rating, Sorghum ([16]; PREEMERGENCE, Rate 50 g/ha): 0
Plant response rating (0 to 10 scale), Sorghum ([16]; PREEMERGENCE, Rate 200 g/ha): 0
Plant response rating, Sorghum ([16]; Rate 200 g/ha, POSTEMERGENCE): 3
Plant response rating, Soybean ([17]; POSTEMERGENCE, Rate 50 g/ha): 6
Plant response rating, Soybean ([17]; PREEMERGENCE, Rate 50 g/ha): 0
Plant response rating (0 to 10 scale), Soybean ([17]; PREEMERGENCE, Rate 200 g/ha): 0
Plant response rating, Soybean ([17]; Rate 200 g/ha, POSTEMERGENCE): 7
Plant response rating, Sugar beet ([18]; POSTEMERGENCE, Rate 50 g/ha): 10
Plant response rating, Sugar beet ([18]; PREEMERGENCE, Rate 50 g/ha): 0
Plant response rating (0 to 10 scale), Sugar beet ([18]; PREEMERGENCE, Rate 200 g/ha): 9
Plant response rating, Sugar beet ([18]; Rate 200 g/ha, POSTEMERGENCE): 10
Plant response rating, Velvetleaf ([19]; POSTEMERGENCE, Rate 50 g/ha): 9
Plant response rating, Velvetleaf ([19]; PREEMERGENCE, Rate 50 g/ha): 3
Plant response rating (0 to 10 scale), Velvetleaf ([19]; PREEMERGENCE, Rate 200 g/ha): 10
Plant response rating, Velvetleaf ([19]; Rate 200 g/ha, POSTEMERGENCE): 10
Plant response rating, Wheat ([20]; POSTEMERGENCE, Rate 50 g/ha): 3
Plant response rating, Wheat ([20]; PREEMERGENCE, Rate 50 g/ha): 0
Plant response rating (0 to 10 scale), Wheat ([20]; PREEMERGENCE, Rate 200 g/ha): 2
Plant response rating, Wheat ([20]; Rate 200 g/ha, POSTEMERGENCE): 4
Plant response rating, Wild buckwheat ([21]; POSTEMERGENCE, Rate 50 g/ha): 10
Plant response rating, Wild buckwheat ([21]; PREEMERGENCE, Rate 50 g/ha): 0
Plant response rating (0 to 10 scale), Wild buckwheat ([21]; PREEMERGENCE, Rate 200 g/ha): 10
Plant response rating, Wild buckwheat ([21]; Rate 200 g/ha, POSTEMERGENCE): 10
Plant response rating, Wild oat ([22]; POSTEMERGENCE, Rate 50 g/ha): 2
Plant response rating, Wild oat ([22]; PREEMERGENCE, Rate 50 g/ha): 0
Plant response rating (0 to 10 scale), Wild oat ([22]; PREEMERGENCE, Rate 200 g/ha): 3
Plant response rating, Wild oat ([22]; Rate 200 g/ha, POSTEMERGENCE): 3
Plant response rating, Nutsedge ([23]; PREEMERGENCE, Rate 50 g/ha): 0
Plant response rating (0 to 10 scale), Nutsedge ([23]; PREEMERGENCE, Rate 200 g/ha): 0
Plant response rating, Nutsedge ([23]; Rate 200 g/ha, POSTEMERGENCE): 3

Source: US6358885B1, “Substituted phenylheterocyclic herbicides” (Mississippi State University, priority 1992, dated 2002)
